According to patent US8530426B2, “Cosmetic or dermopharmaceutical composition comprising at least one UDP glucuronosyl transferase (UGT) enzymes inducer” (Sederma SAS, priority 2004, dated 2013):

Tests used:
[1] = system: Human keratinocytes; assay: PGE2 release post-UVB irradiation, keratinocytes (ELISA); format: cell-based; settings: for Change in PGE2 release post-UVB irradiation, keratinocytes: UVB 30 mJ/cm2, 24 hours
Experimental: (§1) Human keratinocytes and fibroblasts were cultured in an appropriate medium in the presence of various concentrations of chrysin for 24 hours. The cells were then transferred to a product-free medium and exposed to a pro-inflammatory dose of UVB radiation at a dosage of 35 mJ/cm2 for fibroblasts and 30 mJ/cm2 for keratinocytes. Following irradiation, the cells were then post-incubated either in medium alone or in medium containing various concentrations of chrysin vs. a positive control (acetylsalicylic acid) for 24 hours. PGE2 release into the culture medium after 24 hours was determined using an ELISA method.

[2] = system: fibroblasts; assay: PGE2 release post-UVB irradiation, fibroblasts (ELISA); format: cell-based, Human; settings: for Change in PGE2 release post-UVB irradiation, fibroblasts: UVB 35 mJ/cm2, 24 hours
Experimental: as §1

[3] = system: UGT1A1 mRNA; assay: Induction of UGT1A1 mRNA by chrysin, RT-PCR in hepG2 cells; format: cell-based, Human; settings: 3 days
Experimental: Human hepG2 cells were cultured in an appropriate medium (Williams medium) in the presence or absence of the inductor, chrysin, for 3 days At the end of that period, cell lysis was induced, mRNA extracted and RT-PCR conducted
Quantification of UGT1A1 mRNA: The study was conducted after 3 days of incubation in the presence of chrysin. The values, shown in Table 1, obtained were normalized on the GADPH internal standard and then expressed as percentages relative to the reference.

[4] = positive control, concentration not given

Compound | Change in PGE2 release post-UVB irradiation, keratinocytes [1, 4] [%] | inhibition of PGE2, keratinocytes [1, 4] | Change in PGE2 release post-UVB irradiation, fibroblasts [2, 4] [%] | inhibition of PGE2, fibroblasts [2, 4] | UGT1A1 Induction ([3]; chrysin 7.8 μM) | UGT1A1 mRNA, normalized on GADPH, percentage relative to the reference ([3]; chrysin 7.8 μM) [%] | UGT1A1 Induction ([3]; chrysin 11.8 μM) | UGT1A1 mRNA, normalized on GADPH, percentage relative to the reference ([3]; chrysin 11.8 μM) [%] | increase in UGT1A1 mRNA (in words) ([3]; dose effect) | Change in PGE2 release post-UVB irradiation, keratinocytes ([1]; 2 μM) [%] | Change in PGE2 release post-UVB irradiation, keratinocytes ([1]; 3.9 μM) [%] | Change in PGE2 release post-UVB irradiation, keratinocytes ([1]; 7.8 μM) [%] | Change in PGE2 release post-UVB irradiation, keratinocytes ([1]; 11.8 μM) [%] | inhibition of keratinocytic PGE2 ([1]; maximum over the chrysin concentrations, without a dose effect) | Change in PGE2 release post-UVB irradiation, fibroblasts ([2]; 2 μM) [%] | Change in PGE2 release post-UVB irradiation, fibroblasts ([2]; 3.9 μM) [%] | Change in PGE2 release post-UVB irradiation, fibroblasts ([2]; 7.8 μM) [%] | Change in PGE2 release post-UVB irradiation, fibroblasts ([2]; 11.8 μM) [%]
CC(=O)Oc1ccccc1C(=O)O [acetylsalicylic acid, reference compound] | −92 | greater than 90% | −95 | greater than 90% |  |  |  |  |  |  |  |  |  |  |  |  |  | 
O=c1cc(-c2ccccc2)oc2cc(O)cc(O)c12 [Chrysin, 5,7-dihydroxyflavone] |  |  |  |  | ×2.5 | 247 | ×6 | 600 | very marked increase | −75 | −84 | −85 | −86 | up to 85% | −76 | −85 | −89 | −92
